What was measured:
[1] = in vivo; settings: pig
Protocol: Preimplantation and postexplantation grafts, blood and tissues were sent to the HPLC Drug Monitoring Laboratory at the University of Texas Medical School at Houston, (6431 Fannin, Suite 6.233, Houston Tex. 77030) for rapamycin level quantification. Analyses were performed using HPLC/UV assays developed by Dr Kimberly L. Napoli, the director of the laboratory (Napoli et al., “Distribution of Sirolimus in Rat Tissue,” Clin. Biochem. 30:135-42 (1997), which is hereby incorporated by reference in its entirety). Whole blood was collected on the first three postoperative days and at euthanasia to quantitate systemic exposure to rapamycin. To confirm elution of rapamycin from the ePTFE and deposition of drug in the native arterial wall, explanted grafts and adjacent iliac artery were snap frozen in liquid nitrogen. The tissues were packaged on dry ice and sent for rapamycin quantification. The kinetics of elution were extrapolated by sacrificing nine animals (n=3 per time point) on postoperative day 7, 14 and 28. These animals were separate from the twenty-two animals used to evaluate for changes in neointimal hyperplasia.
Similar drug levels were detected despite sterilization. Similarly, the rapamycin fraction was detected 18 minutes after instilling the sample onto the HPLC column irrespective of sterilization. […] Levels decreased from 1000 μg preimplatation to 26.7 μg at one week post explantation. Drug (2.9 μg/gm) was detected in the adjacent arterial wall on postoperative day 7 and persisted until euthanasia.

[2] = 90 days, rapamycin-eluting stents, Carter et al; cited from earlier work
[3] = blood of patients prophylaxed against kidney transplant rejection; cited from earlier work

concentration at 1 day ([1]; mongrel): 9.3 ± 0.2 ng/mL
concentration at 2 day ([1]; mongrel): 2 ± 0.1 ng/mL
concentration at 3 day ([1]; mongrel): 1.9 ± 0.2 ng/mL
Rapamycin level in artery ([1]; mongrel, 7 day): 2.9 ± 0.8 μg/gm
Rapamycin level in graft ([1]; mongrel, 14 day): 12.8 ± 5.0 µg
Rapamycin level in graft ([1]; mongrel, 28 day): 0.005 ± 0.001 µg
Detection of rapamycin in blood [1]: not detectable
concentration at 7 day [1]: 2900 ng/g
concentration at 28 day [1]: 25 ng/g
Compound: CO[C@H]1C[C@@H]2CC[C@@H](C)[C@@](O)(O2)C(=O)C(=O)N2CCCC[C@H]2C(=O)O[C@H]([C@H](C)C[C@@H]2CC[C@@H](O)[C@H](OC)C2)CC(=O)[C@H](C)/C=C(\C)[C@@H](O)[C@@H](OC)C(=O)[C@H](C)C[C@H](C)/C=C/C=C/C=C/1C [Rapamycin, rapamycin]
Elution of rapamycin off grafts [1]: majority of rapamycin eluted off grafts by one week
Rapamycin in the arterial wall [2]: 0.32 ng/mg
current therapeutic rapamycin level [3]: 8 to 17 ng/mL

Source: patent US8568763B2, “Compositions and coatings for delivery of therapeutic agents” (The University of Tennessee Research Foundation, priority 2004, dated 2013)
